Eight compounds from patent US4322370A, “Polycyclic compounds” (Beecham Group Limited, priority 1975, dated 1982) can be followed below.

Bounds are passed on as bounds.

Data set [1] deals with reserpine-induced hypothermia. The data set can be described thus: Reserpine Prevention test (prevention of reserpine-induced hypothermia in mice). Type of data set: in vivo. To be noted: Mus musculus, read-out: Approximate Dose required mg/kg (dose at which compounds are active on the Reserpine Prevention Test in Mice). The source says: The results given in Table 1 were obtained for compounds of the formula (XIII): [drawing 22]

Data set [2] in a line: Oral toxicity in mice (deaths, LD50). The following applies: for Min Dose (mg/kg) at which deaths occurred: mice; for LD50: mouse, in vivo, po.
The nature of data set [3]: Reduction in food intake in hungry rats after oral administration (anorexic activity). Format: in vivo. The following applies: 10 mg/kg. As to the method: The useful anorexic activity of 4-(4-chlorophenyl)-2, 2-dimethyl-7-(2-dimethylaminoethoxy)-1-methylidene tetralin and 4-(4-chlorophenyl-1,2,2,-trimethyl-7-(2-dimethylaminoethoxy) tetralin were determined by the oral administration to hungry rats of the compound and measuring the reduction in their food intake. The results are as follows: […]

Data set [4] in a line: in vivo. To be noted: mouse, po.

Broadly, the LD50 is the dose at which mortality reaches 50%. Regarding `CN(C)CCOc1ccc2c(c1)C(=O)C(C)(C)CC2c1ccc(Cl)cc1` (centres unmarked) [CH2 CH3 CO Cl H, 4-(4-Chlorophenyl)-2,2-dimethyl-7-(2-dimethylaminoethoxy)-1-tetralone], the minimal effective dose in data set [1] came out at 0.03 mg/kg. In data set [2], the “Min Dose (mg/kg) at which deaths occurred” value (from here on “Min Dose (mg/kg)”) turned out to be 10 mg/kg and the median lethal dose (LD50) stood at 55 mg/kg.

As to `CN(C)CCOc1ccc2c(c1)C(=O)C(C)(C)CC2c1ccc(Cl)c(Cl)c1` (centres unmarked) [CH2 CH3 CO Cl Cl, 4-(3,4-Dichlorophenyl)-2,2-dimethyl-7-(2-dimethylaminoethoxy)-1-tetralone], the minimal effective dose in data set [1] turned out to be 1 mg/kg. In data set [2], the “Min Dose (mg/kg)” value is reported as 10 mg/kg and the LD50 was in the range of 10 to 30 mg/kg.

`CN(C)CCOc1ccc2c(c1)C(=O)C(C)(C)CC2c1cccc(C(F)(F)F)c1` (centres unmarked) [CH2 CH3 CO H CF3, 4-(3-Trifluoromethylphenyl)-2,2-dimethyl-7-(2-dimethylaminoethoxy)-1-tetralone]: the minimal effective dose in data set [1] is 3 mg/kg. In addition, in data set [2], the “Min Dose (mg/kg)” value was more than 100 mg/kg and the 50% lethal dose (LD50) was more than 100 mg/kg.

On to `CC1c2cc(OCCN(C)C)ccc2C(c2ccc(Cl)cc2)CC1(C)C` (centres unmarked) [CH2 CH3 CHCH3 Cl H, 4-(4-Chlorophenyl)-1,2,2-trimethyl-7-(2-dimethylaminoethoxy)tetralin], for which the “reduction in food intake” value in data set [3] was 35%. The minimal effective dose in data set [1] came out at 3 mg/kg. Moreover, in data set [2], the “Min Dose (mg/kg)” value is reported as more than 100 mg/kg and the median lethal dose (LD50) was more than 100 mg/kg.

As to `C=C1c2cc(OCCN(C)C)ccc2C(c2ccc(Cl)cc2)CC1(C)C` (centres unmarked) [4-(4-Chlorophenyl)-2,2-dimethyl-7-(2-dimethylaminoethoxy)-1-methylidene tetralin], the “reduction in food intake” value in data set [3] was determined as 51%.

Consider `CN(C)CCOc1ccc2c(c1)C(Cl)C(C)(C)CC2c1ccc(Cl)cc1` (centres unmarked) [CH2 CH3 CHCl Cl H, 1-Chloro-4-(4-chlorophenyl)-2,2-dimethyl-7-(2-dimethylaminoethoxy)tetralin], for which the minimal effective dose in data set [1] is 0.1 mg/kg. Further, in data set [2], the “Min Dose (mg/kg)” value amounted to 30 mg/kg and the LD50 was 33 mg/kg.

In data set [4], `CN(C)CCOc1ccc2c(c1)C(O)C(C)(C)CC2c1ccc(Cl)cc1` (centres unmarked) [CH2 CH3 CHOH Cl H, 4-(4-Chlorophenyl)-1-hydroxy-2,2-dimethyl-7-(2-dimethylaminoethoxy)tetralin] gave a 50% lethal dose (LD50) of 11 mg/kg. Also, the minimal effective dose in data set [1] was determined as 0.1 mg/kg. In data set [2], the “Min Dose (mg/kg)” value was found to be 3 mg/kg.

As to `CNCC(O)COc1ccc2c(c1)C(=O)C(C)(C)CC2c1ccc(Cl)c(Cl)c1` (centres unmarked) [H CO Cl Cl, 4-(3,4-Dichlorophenyl)-7-(2-hydroxy-3-methylaminopropoxy)-2,2-dimethyl-1-tetralone], in data set [1], the minimal effective dose was 1 mg/kg. Moreover, in data set [2], the “Min Dose (mg/kg)” value is more than 100 mg/kg and the LD50 was 100 mg/kg.
